In paper PMC10100792, “Host-Erythrocytic Sphingosine-1-Phosphate Regulates Plasmodium Histone Deacetylase Activity and Exhibits Epigenetic Control over Cell Death and Differentiation” (Microbiology Spectrum, 2023):

Experiments:
[1] = biological target: T1, PfHDAC-1 (histone deacetylase-1) (Plasmodium falciparum, UniProt Q9XYC7); test: microscale thermophoresis; also lipid overlay, S1P-bead pull-down, and […] inhibition of the recombinant enzyme at […]; assay type: binding; parameters: gene HDAC1; full-length, 6×His-PfHDAC-1 (1380 bp CDS from Pf3D7)
T1 sequence (Q9XYC7 1-449): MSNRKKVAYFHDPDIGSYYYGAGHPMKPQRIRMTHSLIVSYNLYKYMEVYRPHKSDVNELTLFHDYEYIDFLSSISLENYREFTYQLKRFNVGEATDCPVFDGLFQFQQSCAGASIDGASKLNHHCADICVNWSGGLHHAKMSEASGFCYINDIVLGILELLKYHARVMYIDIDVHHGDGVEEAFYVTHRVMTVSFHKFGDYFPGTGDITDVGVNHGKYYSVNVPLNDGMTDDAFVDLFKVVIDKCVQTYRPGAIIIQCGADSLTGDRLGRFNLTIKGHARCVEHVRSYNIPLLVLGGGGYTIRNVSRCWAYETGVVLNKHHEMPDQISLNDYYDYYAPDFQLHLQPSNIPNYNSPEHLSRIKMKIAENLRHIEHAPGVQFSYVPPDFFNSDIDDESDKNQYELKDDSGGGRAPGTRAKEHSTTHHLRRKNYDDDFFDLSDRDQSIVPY

[2] = biological target: T2, hHDAC-1 (Homo sapiens, UniProt Q13547); test: microscale thermophoresis; assay type: binding
T2 construct: gene HDAC1
T2 sequence (Q13547 whole entry): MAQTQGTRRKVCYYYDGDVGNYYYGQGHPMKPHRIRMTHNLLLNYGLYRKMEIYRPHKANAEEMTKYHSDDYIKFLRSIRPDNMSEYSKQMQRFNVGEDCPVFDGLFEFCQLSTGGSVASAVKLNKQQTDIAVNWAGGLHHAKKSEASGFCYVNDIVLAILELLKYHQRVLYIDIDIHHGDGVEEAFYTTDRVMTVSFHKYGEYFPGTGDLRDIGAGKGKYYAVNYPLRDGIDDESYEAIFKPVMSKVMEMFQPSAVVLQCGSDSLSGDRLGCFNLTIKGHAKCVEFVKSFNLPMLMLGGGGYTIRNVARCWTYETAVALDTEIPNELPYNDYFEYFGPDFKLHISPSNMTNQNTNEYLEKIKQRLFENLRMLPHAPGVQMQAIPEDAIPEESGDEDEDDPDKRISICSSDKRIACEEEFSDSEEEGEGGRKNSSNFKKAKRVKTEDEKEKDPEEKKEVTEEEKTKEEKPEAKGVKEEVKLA

[3] = biological target: T3, hSphK-1 (sphingosine kinase 1) (Homo sapiens, UniProt Q9NYA1); test: fluorometric conversion of NBD-Sph ([…]) to NBD-S1P by purified rSphK-1; assay type: biochemical
T3 construct: gene SPHK1; full-length, 6×His-SphK-1 (1155 bp CDS)
T3 sequence (Q9NYA1 whole entry): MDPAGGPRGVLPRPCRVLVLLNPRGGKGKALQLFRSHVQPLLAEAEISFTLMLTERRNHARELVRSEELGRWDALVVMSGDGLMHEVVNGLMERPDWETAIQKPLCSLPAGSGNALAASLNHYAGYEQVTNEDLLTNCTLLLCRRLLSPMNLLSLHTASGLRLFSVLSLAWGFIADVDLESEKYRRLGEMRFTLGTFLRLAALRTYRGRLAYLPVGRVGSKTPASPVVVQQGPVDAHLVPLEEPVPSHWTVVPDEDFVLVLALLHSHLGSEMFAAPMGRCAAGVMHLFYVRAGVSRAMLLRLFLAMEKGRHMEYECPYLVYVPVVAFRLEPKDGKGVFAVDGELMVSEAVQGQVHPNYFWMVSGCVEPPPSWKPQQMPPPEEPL

[4] = biological target: T1, PfHDAC-1 (histone deacetylase-1); test: biochemical; parameters: gene HDAC1

CCCCCCCCCCCCC/C=C/[C@@H](O)[C@@H](N)COP(=O)(O)O [S1P, Sphingosine-1-Phosphate]
Kd [1]: 0.177 ± 0.024 µM
Kd [2]: 1.61 ± 0.8 µM

N[C@@H](CO)[C@H](O)/C=C/CCCCCCCCCCCCCNc1ccc([N+](=O)[O-])c2nonc12 [NBD-Sph, NBD-Sphingosine]
fluorometric conversion of NBD-Sph (10 μM) to NBD-S1P by purified rSphK-1 [3]: fluorimetry-based enzymatic assay using NBD-sphingosine

O=C(CCCCCCC(=O)Nc1ccccc1)NO [SAHA, Suberoylanilide Hydroxamic Acid]
Kd [4]: 2.09 ± 0.45 µM
